In ChEMBL document CHEMBL1201862, “PubChem BioAssay data set” (2004):
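Briefly, cells in 96-well plates were exposed to five compound concentrations for 48 h, and endpoints were estimated by linear interpolation. GI50 = concentration required for 50% inhibition of growth.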 Activity calls are given as the source filed them. Cut-off read from the data, not from the text of the source: active = GI50 up to about 1.1 µM and inactive = higher.

How the values were obtained:
Test in all cases: inhibition of tumour cell growth, NCI panel, 48 h
KM12 = test system: KM12
MOLT-4 = test system: MOLT-4
OVCAR-3 = test system: OVCAR-3
OVCAR-8 = test system: OVCAR-8
RXF 393 = test system: RXF 393
SF-268 = test system: SF-268
SK-MEL-5 = test system: SK-MEL-5
U-251 = test system: U-251
UACC-62 = test system: UACC-62
A498 = test system: A498
CAKI-1 = test system: CAKI-1
COLO 205 = test system: COLO 205
EKVX = test system: EKVX
HOP-92 = test system: HOP-92
NCI-H23 = test system: NCI-H23
MDA-MB-435 = test system: MDA-MB-435
MDA-N = test system: MDA-N
NCI/ADR-RES = test system: NCI/ADR-RES
MDA-MB-231 = test system: MDA-MB-231

Row | Compound | GI50 (KM12) | GI50 (MOLT-4) | GI50 (OVCAR-3) | GI50 (OVCAR-8) | GI50 (RXF 393) | GI50 (SF-268) | GI50 (SK-MEL-5) | GI50 (U-251) | GI50 (UACC-62) | GI50 (A498) | GI50 (CAKI-1) | GI50 (COLO 205) | GI50 (EKVX) | GI50 (HOP-92) | GI50 (NCI-H23) | GI50 (MDA-MB-435) | GI50 (MDA-N) | GI50 (NCI/ADR-RES) | GI50 (MDA-MB-231)
1 | O=C(NN1C(=O)C(Cl)C1c1ccccc1Cl)c1ccccc1O (stereo unspecified) | > 100 µM (inactive) | > 100 µM (inactive) | > 100 µM (inactive) | > 100 µM (inactive) | 15.9 µM (inactive) | 71.1 µM (inactive) | > 100 µM (inactive) | > 100 µM (inactive) | > 100 µM (inactive) |  |  |  |  |  |  |  |  |  | 
2 | Cc1ccc(NC(=O)/C(Cl)=C(/Cl)C(=O)O)cc1 | 18.7 µM (inactive) | 11.5 µM (inactive) | 18.1 µM (inactive) |  | 31 µM (inactive) | 23 µM (inactive) | 28.4 µM (inactive) | 17.1 µM (inactive) | 15.9 µM (inactive) | 82.2 µM (inactive) | 17.3 µM (inactive) | 6.93 µM (inactive) | 16.1 µM (inactive) | 18.2 µM (inactive) | 17.5 µM (inactive) |  |  |  | 
3 | CC(C)(C)OC(=O)NC(Cc1ccccc1)NC(=O)NC(=O)OCc1ccccc1 (stereo unspecified) | 59.8 µM (inactive) | > 100 µM (inactive) | 42.2 µM (inactive) | 55.5 µM (inactive) | 22 µM (inactive) | 40.3 µM (inactive) | 26.7 µM (inactive) | 58.5 µM (inactive) | 25.3 µM (inactive) |  | 24 µM (inactive) |  | > 100 µM (inactive) |  | 87.9 µM (inactive) | > 100 µM (inactive) | 64 µM (inactive) | 55.7 µM (inactive) | 
4 | CCOc1ccccc1Nc1nc(C)c(C(=O)CC(=O)C(=O)Nc2ccccc2)s1 | 45.6 µM (inactive) | 23.8 µM (inactive) | 22.2 µM (inactive) | 78.9 µM (inactive) | 99.1 µM (inactive) | > 100 µM (inactive) | 49.2 µM (inactive) | 36.6 µM (inactive) | 37.9 µM (inactive) | 88.5 µM (inactive) | 47.8 µM (inactive) | 49.3 µM (inactive) | 42.4 µM (inactive) | 36.6 µM (inactive) | 36.2 µM (inactive) |  |  |  | 
5 | Cn1nc2ccc3nccc(NCCNCCO)c3c2n1 | 35 µM (inactive) | 5.56 µM (inactive) | 38.3 µM (inactive) | 36.4 µM (inactive) | 23.7 µM (inactive) | 27.4 µM (inactive) | 56.5 µM (inactive) | 37 µM (inactive) | 33.3 µM (inactive) |  | 63 µM (inactive) | 17.5 µM (inactive) |  | 36.3 µM (inactive) | 39.4 µM (inactive) |  |  |  | 
6 | N#Cc1cc([N+](=O)[O-])ccc1NC(=O)C(=O)Nn1c(S)nc2ccccc2c1=O | > 100 µM (inactive) |  | > 100 µM (inactive) | > 100 µM (inactive) | > 100 µM (inactive) | > 100 µM (inactive) | > 100 µM (inactive) | > 100 µM (inactive) |  | > 100 µM (inactive) | > 100 µM (inactive) | > 100 µM (inactive) | > 100 µM (inactive) | > 100 µM (inactive) | > 100 µM (inactive) |  |  |  | 
7 | CCOC(=O)C(C)(C)Oc1ccc2c(-c3ccccc3)cc(=O)oc2c1 |  | 20.2 µM (inactive) | 33.9 µM (inactive) | 37.1 µM (inactive) |  | 45.8 µM (inactive) | 13.9 µM (inactive) | 36.3 µM (inactive) | 18.3 µM (inactive) | 30.2 µM (inactive) |  | 21.6 µM (inactive) | 43 µM (inactive) |  | 29 µM (inactive) |  |  |  | 
8 | CC(=O)N1CCC2(C=Nc3ccccc32)CC1 | > 100 µM (inactive) | > 100 µM (inactive) | > 100 µM (inactive) | > 100 µM (inactive) |  |  | > 100 µM (inactive) | > 100 µM (inactive) | > 100 µM (inactive) | > 100 µM (inactive) | > 100 µM (inactive) | > 100 µM (inactive) | > 100 µM (inactive) | > 100 µM (inactive) | > 100 µM (inactive) |  |  |  | 
9 | O=[N+]([O-])c1ccc(-c2ccc(C3=Nn4c(CNc5ccccc5Cl)nnc4SC3)o2)cc1 | > 100 µM (inactive) | > 100 µM (inactive) | > 100 µM (inactive) | > 100 µM (inactive) |  | > 100 µM (inactive) |  | > 100 µM (inactive) | > 100 µM (inactive) |  | > 100 µM (inactive) | > 100 µM (inactive) |  | > 100 µM (inactive) | 87.9 µM (inactive) |  |  |  | 
10 | NNC(=O)C(=O)N/N=C1/CCCC1C(=O)CCC(=O)Nc1ccc(Cl)cc1 (stereo unspecified) | > 100 µM (inactive) | > 100 µM (inactive) | > 100 µM (inactive) | > 100 µM (inactive) | > 100 µM (inactive) | > 100 µM (inactive) | > 100 µM (inactive) | > 100 µM (inactive) | 2.49 µM (inactive) | > 100 µM (inactive) | 20.5 µM (inactive) | > 100 µM (inactive) | > 100 µM (inactive) | > 100 µM (inactive) | > 100 µM (inactive) |  |  |  | 
11 | COc1ccc(-c2oc(/C=N/c3ccccc3)c([N+](=O)[O-])c2-c2ccc(OC)c(OC)c2)cc1OC | > 100 µM (inactive) | > 100 µM (inactive) | > 100 µM (inactive) | > 100 µM (inactive) | > 100 µM (inactive) | > 100 µM (inactive) | > 100 µM (inactive) | > 100 µM (inactive) | > 100 µM (inactive) |  | > 100 µM (inactive) | > 100 µM (inactive) |  | 65.6 µM (inactive) | > 100 µM (inactive) |  |  |  | 
12 | CN(C)CCNC(=O)c1cccc2c1nc(-c1ccc(F)cc1)c1ccccc12 | 5.93 µM (inactive) | 0.232 µM (active) | 5.58 µM (inactive) | 4.33 µM (inactive) | 3.2 µM (inactive) | 6.58 µM (inactive) | 2.34 µM (inactive) | 3.18 µM (inactive) | 3.09 µM (inactive) | 2.2 µM (inactive) | 3.27 µM (inactive) | 3.21 µM (inactive) | 9.38 µM (inactive) | 2.45 µM (inactive) | 5.71 µM (inactive) |  |  |  | 
13 | CC(=O)/C(=N\O)C(=O)NCc1ccccc1 | > 100 µM (inactive) | > 100 µM (inactive) | > 100 µM (inactive) | > 100 µM (inactive) | > 100 µM (inactive) | > 100 µM (inactive) | > 100 µM (inactive) | > 100 µM (inactive) | > 100 µM (inactive) | > 100 µM (inactive) | > 100 µM (inactive) | 58.9 µM (inactive) | > 100 µM (inactive) | > 100 µM (inactive) | > 100 µM (inactive) |  |  |  | 
14 | COC(=O)C1Cc2c([nH]c3ccccc23)[C@H](CC(C)C)N1 (stereo partly specified) | > 100 µM (inactive) | > 100 µM (inactive) | > 100 µM (inactive) | > 100 µM (inactive) | > 100 µM (inactive) | > 100 µM (inactive) |  | > 100 µM (inactive) | > 100 µM (inactive) | > 100 µM (inactive) |  | > 100 µM (inactive) | > 100 µM (inactive) | > 100 µM (inactive) | > 100 µM (inactive) |  |  |  | 
15 | [O-][S+](c1ccc(O)cc1)c1ccc(O)cc1 | > 100 µM (inactive) | > 100 µM (inactive) | > 100 µM (inactive) |  | > 100 µM (inactive) | > 100 µM (inactive) | > 100 µM (inactive) | > 100 µM (inactive) | > 100 µM (inactive) |  | > 100 µM (inactive) | > 100 µM (inactive) | > 100 µM (inactive) | > 100 µM (inactive) | > 100 µM (inactive) |  |  |  | 
16 | O=C(CN1CCN(c2ccccc2)CC1)N1CCc2c([nH]c3ccccc23)C1c1cccnc1 (stereo unspecified) | 97.3 µM (inactive) | > 100 µM (inactive) | 64.9 µM (inactive) | 24.4 µM (inactive) | 9.68 µM (inactive) | 39.1 µM (inactive) | 51.3 µM (inactive) | 14.3 µM (inactive) | 88.7 µM (inactive) | > 100 µM (inactive) | 25.3 µM (inactive) | > 100 µM (inactive) | > 100 µM (inactive) | 20.2 µM (inactive) | 30.5 µM (inactive) |  |  |  | 
17 | OC1[C@H]([C@H]2CCCC[C@@H]2O)CCC[C@@H]1[C@@H]1CCCC[C@H]1O (stereo partly specified) | > 100 µM (inactive) | > 100 µM (inactive) | > 100 µM (inactive) | > 100 µM (inactive) | > 100 µM (inactive) | > 100 µM (inactive) | > 100 µM (inactive) | > 100 µM (inactive) | > 100 µM (inactive) | > 100 µM (inactive) | > 100 µM (inactive) | > 100 µM (inactive) | > 100 µM (inactive) | > 100 µM (inactive) | > 100 µM (inactive) |  |  |  | 
18 | CCCCCCCCCC(=O)N[C@H]1CCc2cc(OC)c(OC)c(OC)c2-c2ccc(SC)c(=O)cc21 | 0.0209 µM (active) | 0.0392 µM (active) | 0.0226 µM (active) | 0.0338 µM (active) | 0.0224 µM (active) | 0.0223 µM (active) | 0.024 µM (active) | 0.0274 µM (active) | 0.0353 µM (active) | 0.0255 µM (active) | 0.056 µM (active) | 0.00345 µM (active) | 0.0527 µM (active) | 0.0168 µM (active) | 0.0216 µM (active) |  |  |  | 
19 | CC(=O)O[C@@]12CO[C@@H]1C[C@H](O)[C@@]1(C)C(=O)[C@H](O)C3=C(C)[C@@H](OC(=O)[C@H](O)[C@@H](NC(=O)OC(C)(C)C)c4ccccc4)C[C@@](O)([C@@H](OC(=O)c4ccccc4)[C@H]21)C3(C)C [DOCETAXEL] | < 0.01 µM (active) | < 0.0631 µM (active) | < 0.01 µM (active) | < 0.01 µM (active) | 0.242 µM (active) | < 0.01 µM (active) | < 0.01 µM (active) | < 0.01 µM (active) | < 0.01 µM (active) | < 0.0851 µM (active) | 0.0417 µM (active) | < 0.01 µM (active) | 3.72 µM (inactive) | 9.04 µM (inactive) | < 0.01 µM (active) | 0.000149 µM (active) | 0.0001 µM (active) |  | 0.0216 µM (active)
